Measurements reported in patent US20250197864A1, “LNCRNA TRANSCRIPTS IN MELANOMAGENESIS” (The Regents of the University of California, priority 2021, published 2025).

Tested on: gene expression in D04 melanoma cells
Experiment: RNA-Seq differential expression analysis (DESeq2)
Assay type: cell-based, human
Procedure: Total RNA was isolated using the RNeasy mini Kit (QIAGEN) following the manufacturer's protocol. Quality check for extracted RNA was done using 2100 Bioanalyzer (Agilent Technologies, USA) or Tapestation System (Agilent Technologies, USA). […] For samples used for identification of MAPK-responsive lncRNAs, paired-end, 101-bp sequencing was performed by Centrillion Genomic Services (Centrillion Biosciences, USA) on an Illumina HiSeq 2000. For DE gene analysis of ASO-transfected D04 samples, paired-end, 2×150-bp sequencing was performed by Genewiz (USA) on a Illumina HiSeq.
Sequence reads were aligned to the human genome (hg19) using TopHat (Version 2.0.11).
Differential expression (DE) analysis was done using DESeq2. Differentially expressed genes were defined by more than 1.5-fold changes (log 2 >0.58 or <−0.58) in expression with FDR<0.05. GO term analysis was done using DAVID Functional Annotation Clustering analysis.
To examine the biomolecular changes upon TRASH-inhibition in melanoma, D04 cells were treated with TRASH-ASOs (SEQ ID NO:15) and Control-ASOs and RNA was extracted and used for RNA-Seq. […] These GO terms consisted of genes encoding growth factors, tyrosine kinases, G protein coupled receptor subunits, and collagen subunits. Scatter plot diagram showing differential gene expression after TRASH-ASO treatment compared to Control-ASO treatment. (cut-off for significance was adjusted p-value <0.05). Data was obtained from RNA-Seq of D04 melanoma cells, treatment period was three days. (FIG. 5c)

GACTGGAGATAATTAA (gapmer, pattern not given here) [SEQ ID NO: 15, GapmeR ASO targeting AC004540.4 (TRASH), exon region of both isoforms; used for in vitro experiments]
log2FoldChange (44256 (ENSG00000186205)): 1.274
log2FoldChange (44259 (ENSG00000144583)): 2.095
log2FoldChange (A2M (ENSG00000175899)): −0.6461
log2FoldChange (AADACP1 (ENSG00000240602)): 1.744
log2FoldChange (AAGAB (ENSG00000103591)): −0.6248
log2FoldChange (AAMDC (ENSG00000087884)): −0.6077
log2FoldChange (ABCA7 (ENSG00000064687)): −0.6185
log2FoldChange (AC004817.3 (ENSG00000269927)): 1.303
log2FoldChange (AC004949.1 (ENSG00000283117)): −0.6056
log2FoldChange (AC005144.1 (ENSG00000283517)): 1.578
log2FoldChange (AC006058.1 (ENSG00000261786)): −0.7044
log2FoldChange (AC009502.2 (ENSG00000231802)): 1.847
log2FoldChange (AC010735.1 (ENSG00000261379)): −0.6617
log2FoldChange (AC010735.2 (ENSG00000272622)): −0.6927
log2FoldChange (AC011944.1 (ENSG00000177699)): 1.481
log2FoldChange (AC022007.1 (ENSG00000206567)): −0.6327
log2FoldChange (AC022031.2 (ENSG00000267284)): −0.6353
log2FoldChange (AC048341.1 (ENSG00000257354)): −0.6321
log2FoldChange (AC073130.1 (ENSG00000237870)): 1.474
log2FoldChange (AC090192.2 (ENSG00000253227)): 1.561
log2FoldChange (AC090204.1 (ENSG00000247134)): −0.6895
log2FoldChange (AC090505.1 (ENSG00000234805)): 1.656
log2FoldChange (AC099552.1 (ENSG00000217825)): 2.619
log2FoldChange (AC105942.1 (ENSG00000235501)): −0.6072
log2FoldChange (AC117386.2 (ENSG00000243944)): −0.661
log2FoldChange (AC131254.1 (ENSG00000248964)): 2
log2FoldChange (AC133785.1 (ENSG00000233221)): 1.627
log2FoldChange (AC135782.1 (ENSG00000256982)): 1.563
log2FoldChange (AC139491.2 (ENSG00000248596)): 1.322
log2FoldChange (AC237221.1 (ENSG00000260653)): 1.665
log2FoldChange (AC245041.1 (ENSG00000273760)): 1.261
log2FoldChange (ACTBL2 (ENSG00000169067)): −0.6731
log2FoldChange (ACTR3C (ENSG00000106526)): −0.7012
log2FoldChange (ADCYAP1R1 (ENSG00000078549)): 2.87
log2FoldChange (ADGRA2 (ENSG00000020181)): −0.7029
log2FoldChange (ADGRB1 (ENSG00000181790)): 1.472
log2FoldChange (ADGRE4P (ENSG00000268758)): 1.451
log2FoldChange (ADPRHL1 (ENSG00000153531)): 3.706
log2FoldChange (ADRB2 (ENSG00000169252)): 1.354
log2FoldChange (AHNAK2 (ENSG00000185567)): 1.379
log2FoldChange (AHR (ENSG00000106546)): −0.6391
log2FoldChange (AKNAD1 (ENSG00000162641)): 1.238
log2FoldChange (AL161431.1 (ENSG00000275216)): 1.631
log2FoldChange (AL356234.3 (ENSG00000283265)): 2.668
log2FoldChange (AL365181.2 (ENSG00000272068)): 1.422
log2FoldChange (AL390334.1 (ENSG00000258932)): −0.6259
log2FoldChange (AL512488.1 (ENSG00000230439)): 1.824
log2FoldChange (AL590004.4 (ENSG00000260604)): 1.853
log2FoldChange (ALMS1-IT1 (ENSG00000230002)): 1.247
log2FoldChange (ALOXE3 (ENSG00000179148)): 4.94
log2FoldChange (ALPI (ENSG00000163295)): 7.153
log2FoldChange (ANKH (ENSG00000154122)): −0.6414
log2FoldChange (ANO2 (ENSG00000047617)): 2.643
log2FoldChange (ANXA8 (ENSG00000265190)): 1.513
log2FoldChange (ANXA8L1 (ENSG00000264230)): 1.299
log2FoldChange (APOA4 (ENSG00000110244)): 7.547
log2FoldChange (APOE (ENSG00000130203)): −0.6001
log2FoldChange (AQP1 (ENSG00000240583)): −0.6784
log2FoldChange (ARC (ENSG00000198576)): 1.257
log2FoldChange (ARHGDIB (ENSG00000111348)): 1.501
log2FoldChange (ARSA (ENSG00000100299)): −0.6363
log2FoldChange (ATG9B (ENSG00000181652)): 1.674
log2FoldChange (ATP2B2 (ENSG00000157087)): 2.6809
log2FoldChange (B3GALT5 (ENSG00000183778)): 3.38
log2FoldChange (B4GALNT3 (ENSG00000139044)): −0.6558
log2FoldChange (BAALC-AS1 (ENSG00000247081)): −0.5946
log2FoldChange (BEX5 (ENSG00000184515)): 1.778
log2FoldChange (BHLHB9 (ENSG00000198908)): −0.6347
log2FoldChange (BIRC7 (ENSG00000101197)): 1.54
log2FoldChange (BVES (ENSG00000112276)): −0.7008
log2FoldChange (C1orf21 (ENSG00000116667)): −0.5945
log2FoldChange (C1orf116 (ENSG00000182795)): 1.382
log2FoldChange (C3 (ENSG00000125730)): −0.6635
log2FoldChange (C5 (ENSG00000106804)): −0.69
log2FoldChange (C7orf57 (ENSG00000164746)): 1.917
log2FoldChange (C7orf69 (ENSG00000136275)): −0.6813
log2FoldChange (C10orf55 (ENSG00000222047)): 2.331
log2FoldChange (C10orf90 (ENSG00000154493)): −0.626
log2FoldChange (C11orf86 (ENSG00000173237)): 1.233
log2FoldChange (C15orf54 (ENSG00000175746)): 1.489
log2FoldChange (C16orf45 (ENSG00000166780)): −0.6742
log2FoldChange (CACNA1D (ENSG00000157388)): −0.6311
log2FoldChange (CACNA1H (ENSG00000196557)): 1.733
log2FoldChange (CALB2 (ENSG00000172137)): 1.839
log2FoldChange (CARMIL1 (ENSG00000079691)): −0.6828
log2FoldChange (CASC9 (ENSG00000249395)): −0.6279
log2FoldChange (CASTOR3 (ENSG00000239521)): −0.6683
